Data from article PMC11203266, “Continuous evolution of compact protein degradation tags regulated by selective molecular glues” (Science (New York, N.Y.), 2024).

Experiments:
[1] = biological target: CRBN (Homo sapiens, UniProt Q96SW2); assay: In-cell CRBN engagement NanoBRET; conditions: for EC50: EC50 CRBN engagement
Description: U2OS or HEK293T cells were transfected with a combination of NanoLuc-CRBN fusion vector (1 μg/ 100,000 cells) and DDB1 expression vector (4 μg/ 100,000 cells) encoded plasmid (Promega N2910) using Lipofectamine 3000 reagent (Thermo Fischer Scientific, L3000015). […] The transfected cells were washed with PBS, trypsinized, and plated in a 384-well white microplate (Corning, 3765) at 3000 cells in 34 μL Opti-MEM I reduced serum medium per well. […] The plates were incubated for 1 hour at 37 °C, 5% CO2. After incubation plates were brought to room temperature and incubated with 3X complete substrate plus inhibitor solution (20 μL) for 3 minutes at room temperature before measuring BRET signal on an EnVision multilabel plate reader with EnVision Manager 1.13 (PerkinElmer). At each liquid handling step, the plates were shaken on a Thermo Fisher combi instrument followed by centrifugation at 100 xg for 1 minute.
Lipofectamine 2000 was used in place of lipofectamine 3000 for all transfections, 1 μg of pSD192A was included for generating the SD40-PRKRA overexpression sample, and the assay was performed using 2,500 cells per well.
NanoBRET values for the in-cell CRBN engagement assay were calculated as follows:
2) mean corrected NanoBRET ratio mBU = Mean mBU experimental − Mean mBU no-ligand control.
EC50 values were calculated in GraphPad Prism (v9.5.1), using an inhibitor vs. response variable slope (four parameter) model.

[2] = biological target: T1, TUB (Homo sapiens, UniProt P50607); assay: Western blot of TUB in HEK293T cells; assay type: cell-based; conditions: 100-10,000 nM
T1 construct: endogenous in cells; host or cells: HEK293T
Description: HEK293T or K562 cells were plated at a density of 1.6 x 10^5 cells/well in a 24-well plate coated with poly-D-lysine (Corning) in 1 mL media (DMEM + 10% FBS for HEK293T cells and RPMI + 10% FBS for K562 cells). After 16–18 hrs, cells were treated with either DMSO or the indicated concentration of small molecules to a 0.5% final concentration of DMSO. Plates were incubated at 37 °C, 5% CO2 for 24 hours for all cell lines except endogenously tagged PLK1–SD40 HEK293T cells, which were incubated for 2 hours. Cells were washed with PBS and then lysed for 30 minutes at 4 °C in radioimmunoprecipitation assay (RIPA; 25 mM Tris-HCl, 150 mM NaCl, 1% NP-40, 1% sodium deoxycholate, 0.1% SDS, pH ~ 7.6) buffer containing 1 mM phenylmethylsulfonyl fluoride (PMSF; Sigma Aldrich) and 1 x EDTA-free protease inhibitor cocktail (Roche). Lysates were centrifuged for 20 min @18,000 x g to isolate the soluble fractions. Protein concentration in clarified lysates was quantified using Pierce BCA Protein Assay Kit (Thermo Scientific) according to the manufacturer’s protocol. Clarified lysates were mixed with NuPAGE LDS Sample Buffer (Thermo NP0007) containing 10 mM DTT and boiled for 10 minutes. Gel electrophoresis was performed on boiled samples using polyacrylamide gels (Invitrogen NP0329BOX) with equal amounts of total protein in each lane. […]
values were calculated using a Welch's t-test. […]

[3] = biological target: CRBNCTD (Homo sapiens, UniProt Q96SW2); assay: CRBNCTD MG-PACE circuit luminescence assay; assay type: cell-based; conditions: pomalidomide; degron SD0; vs DMSO
From the text: We also explored anchoring the circuit with the CRBN C-terminal domain (CTD) alone, which contains the IMiD binding pocket (Fig. 2B) ([65], [69]). […] We attributed the difference in maximum circuit activation to poor expression of full-length CRBN in E. coli. In our initial efforts, we used the CRBNCTD MG-PACE circuit, hypothesizing that higher activation (lower selection stringency) would better support weak-binding SD0 variants in the early stages of evolution.
Chemically competent S2060 cells were co-transformed with accessory and complementary plasmids (Table S1). Cells were plated on LB agar supplemented with carbenicillin, spectinomycin, and tetracycline and grown overnight at 37 °C. Single colonies were seeded in 1 mL DRM with carbenicillin and spectinomycin and grown overnight in a 37 °C shaker at 220 rpm. Overnight cultures were back-diluted 1:100 in DRM with carbenicillin and spectinomycin and grown at 37 °C with shaking until OD600 values reached 0.3-0.4. Polymyxin B nonapeptide (PMBN) was added to a final concentration of 3 μg/mL culture from a 1000x stock (3 mg/mL in DMSO). […] 96-well plates were then incubated in an Infinite M1000 Pro microplate reader (Tecan) at 37 °C with continuous shaking for ~1 hour prior to reading A600 nm and luminescence values. Raw luminescence values were then divided by the corresponding A600 nm values to normalize to cell density.

Sequence of CRBN (Q96SW2 whole entry): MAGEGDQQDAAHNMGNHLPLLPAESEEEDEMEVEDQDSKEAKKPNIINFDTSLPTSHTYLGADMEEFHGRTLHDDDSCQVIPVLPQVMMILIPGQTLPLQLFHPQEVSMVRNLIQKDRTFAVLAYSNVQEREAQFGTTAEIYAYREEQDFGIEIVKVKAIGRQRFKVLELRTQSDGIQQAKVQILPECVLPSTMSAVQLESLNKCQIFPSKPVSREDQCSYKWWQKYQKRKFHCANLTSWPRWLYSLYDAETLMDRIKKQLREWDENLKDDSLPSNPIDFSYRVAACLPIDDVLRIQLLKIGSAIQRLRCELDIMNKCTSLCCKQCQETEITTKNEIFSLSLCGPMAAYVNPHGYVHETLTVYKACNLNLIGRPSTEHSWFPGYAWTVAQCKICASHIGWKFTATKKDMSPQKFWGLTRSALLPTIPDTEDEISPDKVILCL
Sequence of CRBN (Q16531 whole entry partner): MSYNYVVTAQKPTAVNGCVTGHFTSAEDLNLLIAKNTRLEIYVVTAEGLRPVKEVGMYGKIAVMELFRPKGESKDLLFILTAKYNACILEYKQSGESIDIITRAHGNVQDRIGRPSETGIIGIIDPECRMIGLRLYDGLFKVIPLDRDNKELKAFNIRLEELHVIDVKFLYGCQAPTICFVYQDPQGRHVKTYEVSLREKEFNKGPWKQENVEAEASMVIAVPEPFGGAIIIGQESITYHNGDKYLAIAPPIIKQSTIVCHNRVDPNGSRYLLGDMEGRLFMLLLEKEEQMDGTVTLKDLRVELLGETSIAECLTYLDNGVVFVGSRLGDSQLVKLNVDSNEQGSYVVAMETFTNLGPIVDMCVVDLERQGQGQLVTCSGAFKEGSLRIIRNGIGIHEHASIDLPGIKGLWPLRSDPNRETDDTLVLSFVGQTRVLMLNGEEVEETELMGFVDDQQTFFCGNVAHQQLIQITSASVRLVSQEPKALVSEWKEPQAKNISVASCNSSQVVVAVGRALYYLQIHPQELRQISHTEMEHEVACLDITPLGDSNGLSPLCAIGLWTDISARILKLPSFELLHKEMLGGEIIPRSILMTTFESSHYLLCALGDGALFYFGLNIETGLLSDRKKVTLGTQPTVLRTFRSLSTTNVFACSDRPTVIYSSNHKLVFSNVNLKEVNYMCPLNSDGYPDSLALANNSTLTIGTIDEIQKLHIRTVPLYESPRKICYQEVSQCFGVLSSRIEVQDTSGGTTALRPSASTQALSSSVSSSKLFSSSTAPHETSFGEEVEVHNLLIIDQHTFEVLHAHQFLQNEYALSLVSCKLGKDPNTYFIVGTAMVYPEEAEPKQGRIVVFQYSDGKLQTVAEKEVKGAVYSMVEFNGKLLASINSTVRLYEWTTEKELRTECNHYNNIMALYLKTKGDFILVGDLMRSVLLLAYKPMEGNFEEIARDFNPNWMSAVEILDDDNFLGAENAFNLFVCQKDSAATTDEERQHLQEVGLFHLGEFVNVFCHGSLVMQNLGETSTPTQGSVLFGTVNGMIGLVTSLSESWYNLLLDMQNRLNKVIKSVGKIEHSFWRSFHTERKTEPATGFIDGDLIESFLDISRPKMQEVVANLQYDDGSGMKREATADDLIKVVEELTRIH
T1 sequence (P50607 whole entry): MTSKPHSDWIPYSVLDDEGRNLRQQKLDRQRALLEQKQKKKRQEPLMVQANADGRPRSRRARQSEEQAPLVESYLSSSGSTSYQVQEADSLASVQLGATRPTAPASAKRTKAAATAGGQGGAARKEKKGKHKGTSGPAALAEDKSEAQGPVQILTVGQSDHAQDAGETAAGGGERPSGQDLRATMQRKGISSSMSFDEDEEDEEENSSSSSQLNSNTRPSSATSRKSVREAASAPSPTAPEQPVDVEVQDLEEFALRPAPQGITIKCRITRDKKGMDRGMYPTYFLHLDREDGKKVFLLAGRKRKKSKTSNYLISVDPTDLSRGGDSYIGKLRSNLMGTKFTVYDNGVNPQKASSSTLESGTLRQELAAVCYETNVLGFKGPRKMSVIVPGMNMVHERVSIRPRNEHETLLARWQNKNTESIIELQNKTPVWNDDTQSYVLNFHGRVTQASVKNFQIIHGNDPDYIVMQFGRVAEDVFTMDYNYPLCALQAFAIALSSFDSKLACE
Sequence of CRBNCTD (Q96SW2 318-426 limits assumed): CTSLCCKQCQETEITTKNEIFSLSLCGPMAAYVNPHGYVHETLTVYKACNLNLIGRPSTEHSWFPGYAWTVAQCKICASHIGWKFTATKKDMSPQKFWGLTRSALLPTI

| SMILES | EC50 ([1]; HEK293T cells) [nM] | EC50 ([1]; HEK293T cells, No SD40 (fig. S16 protocol)) [nM] | EC50 ([1]; HEK293T cells, SD40–PRKRA low expression (single-copy lentiviral integration)) [nM] | EC50 ([1]; HEK293T cells, SD40–PRKRA overexpression (plasmid transfection)) [nM] | EC50 ([1]; U2OS cells) [nM] | lower apparent potency than pomalidomide ([1]; HEK293T and U2OS cells) [fold] | increase in apparent affinity for CRBN ([1]; HEK293T cells overexpressing SD40–PRKRA) [fold] | increase in apparent affinity for CRBN ([1]; HEK293T cells stably expressing SD40–PRKRA) [fold] | TUB degradation (in words) [2] | transcriptional activation at the highest dose [3] [fold] |
| --- | --- | --- | --- | --- | --- | --- | --- | --- | --- | --- |
| O=C1CCC(N2C(=O)c3ccc(N4CCOCC4)cc3C2=O)C(=O)N1 (stereo not shown) [PT-179] | 2880 | 641 | 350 | 169 | 979 | 7 | 3.8 | 1.8 | does not degrade TUB |  |
| Nc1cccc2c1C(=O)N(C1CCC(=O)NC1=O)C2=O (stereo not shown) [pomalidomide, reference compound] |  |  |  |  |  |  |  |  |  | 13 |
